From patent US10370373B2, “Antitumor derivatives for differentiation therapy” (THE CLEVELAND CLINIC FOUNDATION, priority 2016, dated 2019)

Key:
Format in all cases: cell-based
THP1 AML cells [1] = assay: cell number / growth of THP1 AML cells; settings: derivatives at 1 mM vs ED2 at 10 μM
Description: (§1) E) Elevation of differentiation markers CD11b and CD14. […] G) Upregulation of p27 (CDKN1B) (ED3 lysates were unavailable).

THP-1 cells = assay: Annexin-PI flow cytometry for apoptosis; settings: 5 days after treatment
Description: (§2) (A) CD11b flow cytometry was performed on THP-1 cells 5 days after the indicated treatments. (B) Annexin-PI flow cytometry of the same cells to determine the percent of cells that were undergoing apoptosis after treatments with the different compounds. Camptothecin is a positive apoptosis inducer.

THP1 AML cells [2] = assay: CD11b / CD14 differentiation marker flow cytometry; settings: THP-1 cells, 5 days after treatment
Description: as §1, §2

[3] = cell viability (zolpidem)

SMILES	growth inhibitory activity against THP-1 cells versus ED2 (THP1 AML cells [1])	activation of apoptosis pathway (Annexin-PI) (THP-1 cells)	differentiation induction via CD11b flow cytometry versus decitabine and ED2 (THP1 AML cells [2])	cell viability [3]
CCCCSc1ccc2nc(-c3ccc(OCCCN)cc3)cn2c1 [NH2, 3-(4-(6-(butylthio)imidazo[1,2-a]pyridin-2-yl)phenoxy)propan-1-amine]	more potent growth inhibitory activity	do not activate the apoptosis pathway	better differentiation inducers than decitabine (DAC) and ED2	–
O=C(O)CCCC[C@@H]1SC[C@@H]2NC(=O)N[C@@H]21 [biotin]	more potent growth inhibitory activity	do not activate the apoptosis pathway	better differentiation inducers than decitabine (DAC) and ED2	–
Cc1ccc(-c2nc3ccc(C)cn3c2CC(=O)N(C)C)cc1 [zolpidem]	–	–	–	does not affect cell viability
